Assays:
[1] = test system: HCT-116 cells; experiment: Cell cycle arrest and DNA damage markers; type: cell-based
[2] = biological target: T1, 19S RP (Homo sapiens, UniProt P54578+Q9Y5K5); experiment: Ubiquitin-cleavage assay (Ub-GFP, ubiquitinated Hdm2); type: biochemical; conditions: 19S RP 25 nM, 50 μM compound, 10 min
T1 construct: purchased Boston Biochem E-366
Experimental: Recombinant ubiquitin-GFP is a substrate for 19S RP DUB activity (15). […] The type of ubiquitin bonds present in the polyubiquitin chain determines the fate of an ubiquitin-modified substrate.
Ubiquitin-cleavage assay. The recombinant Ub-GFP plasmid pet19b Ub-M-GFP is generated as described (30). In brief recombinant Ub-GFP is purified from BL21 E. coli cells by His affinity purification. For cleavage assays 19S RP (25 nM) is incubated with 10 mM NEM, 250 μM TPEN or 50 μM of the compound of the invention for 10 min followed by the addition of recombinant Ub-GFP (200 nM). Ubiquitin chain disassembly reactions are performed essentially as above except K48- or K63-linked ubiquitin tetramers (50 ng) are substituted for Ub-GFP. The level of Ub-GFP cleavage or ubiquitin disassembly is determined by immunoblotting with anti ubiquitin antibodies. The ubiquitinated Hdm2 substrate is generated according to the Boston Biochem protocol (K-200). For the cleavage assay 19S RP (25 nM) is incubated with 50 μM of the compound of the invention or DMSO for 10 min followed by the addition of ubiquitinated Hdm2 substrate (100 nM). The cleavage of ubiquitinated Hdm2 substrate and ubiquitinated Hdm2 is determined by immunoblotting with anti-Hdm2 antibodies.

[3] = test system: HCT116 colon cancer cells; experiment: Apoptosis in isogenic clones of HCT116 colon cancer cells; type: cell-based
Description: The increase in sub G1 DNA, caspase-3 activation and cleavage of poly-ADP ribose polymerase (PARP) and cytokeratin is associated with an overall decrease in cell viability at drug concentrations that induce the accumulation of polyubiquitin connecting UPS inhibition and apoptosis. Apoptosis induction by bortezomib is sensitive to the status of the p53 tumor suppressor and over-expression of the anti-apoptotic Bcl-2 oncoprotein (11, 12). […] Cell culture. MCF7 cells are maintained in MEM/10% fetal calf serum. HCT-116 p53+/+, p53−/−, Bcl-2+/+, PUMA−/− and BAX−/− cells are maintained in McCoy's 5A modified medium/10% fetal calf serum. The HCT-116 p53+/+, p53−/−, PUMA−/− and BAX−/− are generated as described (25). The HCT-116 Bcl-2+/+ cell line was generated by transfecting parental HCT-116 p53+/+ cells with pCEP4 Bcl-2 (Addgene plasmid 16461) (26) and isolating high expression clones. FaDu and LLC3 cells are maintained in DMEM high glucose medium supplemented with 10% fetal calf serum, Na pyruvate, Hepes and non-essential amino acids. 4T1.12B carcinoma cells are maintained in RPMI medium supplemented with 10% fetal calf serum. The proteasome reporter cell line MelJuSo Ub-YFP was generated as described (12). […] Cell viability is determined by measuring acid phosphatase activity or using the FMCA method (32). […] Absorbance is measured at 405 nm. […]

[4] = test system: HCT116; experiment: FMCA (Fluorometric Microculture Cytotoxicity Assay) cytotoxicity; type: cell-based
In short: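 HCT-116 cells exposed continuously to compound for 72 h; viability read by FMCA fluorescence. Survival index is test-well fluorescence as percent of untreated controls, blank subtracted.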

[5] = Dissolution in 25% by weight Kolliphor HS15; type: physicochemical; conditions: 25% w/w Kolliphor HS15, ultrasound about 50° C. about 2 h
Experimental: Pharmaceutical composition E (solution). For intraperitoneal administration a 25% by weight Kolliphor HS15 stock solution was prepared by melting an entire container of Kolliphor HS15 (Sigma 42966) by warming to 60° C. and diluting with deionized water to 25% w/w. To compound #1570 (18.0 mg) in a 10 mL sample tube was added 10.0 mL of the stock solution and the tube vortexed, treated with ultrasound at about 50° C. for about 2 h, and occasionally heated to about 83° C. […] By the same procedure solutions of compounds #1546 and #1571 were prepared; these compounds were however not fully dissolved. The non-dissolved residue was weighed, and the weight deducted from the starting weight of compound (18 mg).

[6] = test system: MelJuSo Ub-YFP reporter cell line; experiment: Proteasome inhibition in reporter cell line, YFP accumulation in IncuCyte-FLR; type: cell-based; conditions: Table 2; YFP accumulation measured for 48 hours
In short: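 MelJuSo Ub-YFP reporter cells, which accumulate YFP when the proteasome is inhibited, were exposed to compound. YFP accumulation was followed for 48 hours by automated fluorescence microscopy. Number of positive cells per field served as the proteasome-inhibition measure.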

Structure (SMILES)	genotoxicity (DNA damage markers phosphorylated p53 Ser 15, H2AX Ser 139) [1]	cleavage of Ub-GFP and ubiquitinated HDM2 by 19S RP [2]	sensitivity of induced apoptosis to over-expression of Bcl-2 and disruption of p52, BAX or PUMA [3]	cytotoxicity relative to structurally corresponding compounds with a 6-membered ring moiety ([4]; HCT-116, 72 hours, survival index, FIGS. 3b, 3d, 3f)	IC50 ([4]; Table 2, 72 hours of continuous compound exposure)	dissolution of 18.0 mg in 10.0 mL stock solution [5]	MeJuSo-UB, lowest effective conc. [6]
C=CC(=O)N1C/C(=C\c2ccc([N+](=O)[O-])cc2)C(=O)/C(=C/c2ccc([N+](=O)[O-])cc2)C1 [b-AP15]	not a genotoxic agent	efficiently inhibited	insensitive				
C=CC(=O)N1CCC(=Cc2ccc(F)c([N+](=O)[O-])c2)C(=O)C(=Cc2ccc(F)c([N+](=O)[O-])c2)C1 [Compound 1570]				more cytotoxic	500 nM	clear solution	0.25 µM

— US9221761B2, “Method for inhibition of deubiquitinating activity” (Vivolux AB, priority 2011, dated 2015)
